From BindingDB's records for doi:10.1021/bi0488799 (Glaxosmithkline, 2004)

Assays:
Conditions in all cases: pH 5.5; 30 °C
[1] = target: T1, Dimer of Gag-Pol polyprotein [489-587,I539V] (Human immunodeficiency virus 1, UniProt P04585, I539V); test: Kinetic Competitive Displacement Assay
T1 construct: 489-587
Experimental: The method was a competitive displacement assay used to determine binding affinities of other inhibitors relative to that of GW0385. The inhibitor of unknown affinity was used to displace [3H]GW0385 from enzyme-bound [3H]GW0385 (E[3H]GW0385). From the concentration of E[3H]GW0385 at equilibrium, the concentrations of enzyme-bound and free inhibitors were calculated, and the ratio of the Ki value of the unknown to that of GW0385 was determined (Ki,unknown/Ki,GW0385).

[2] = target: T2, Dimer of Gag-Pol polyprotein [489-587,L499I,L508Q,K509R,E524D,M525I,S526N,M535I,I539V,I543V,I551V,L552P,A560V,V571A,L579M] (Human immunodeficiency virus 1, UniProt P04585, A560V/E524D/I539V/I543V/I551V/K509R/L499I/L508Q/L552P/L579M/M525I/M535I/S526N/V571A); test: Fluorometric Activity Assay
T2 construct: 489-587
Experimental: (§1) Enzymatic activity was determined with fluorogenic substrate in the presence and absence of inhibitor. The fluorescence increase due to hydrolysis of the substrate was monitored with an excitation filter of wavelength 340 nm and an emission filter of wavelength 420. Values for the inhibition constants (Ki) were determined by conventional steady-state kinetic techniques.

[3] = target: T3, Dimer of Gag-Pol polyprotein [489-587,M535I,L552P,A560V,V571F,I573V] (Human immunodeficiency virus 1, UniProt P04585, A560V/I573V/L552P/M535I/V571F); test: Fluorometric Activity Assay
T3 construct: 489-587
Experimental: as §1

[4] = target: T4, Dimer of Gag-Pol polyprotein [489-587] (Human immunodeficiency virus 1, UniProt P12497); test: Fluorometric Activity Assay
T4 construct: 489-587
Experimental: as §1

[5] = target: T2, Dimer of Gag-Pol polyprotein [489-587,L499I,L508Q,K509R,E524D,M525I,S526N,M535I,I539V,I543V,I551V,L552P,A560V,V571A,L579M]; test: GW0385 Assay
Experimental: (§2) The assay method employed kinetic determinations of values for k1 and k-1, from which value of inhibition constant (Ki ) was determined (k-1/k1). The k1 is calculated from spectrofluorometric data in the presence of saquinavir. The k-1 is calculated from the time course for displacement of [3H]GW0385 from E[3H]GW0385 by nonlabeled GW0385.

[6] = target: T1, Dimer of Gag-Pol polyprotein [489-587,I539V]; test: GW0385 Assay
Experimental: as §2

## CC(C)CN(C[C@@H](O)[C@H](Cc1ccc(OCc2ccccn2)cc1)NC(=O)O[C@H]1CO[C@H]2OCC[C@H]21)S(=O)(=O)c1ccc2c(c1)OCO2 [(3R,3aS,6aR)-hexahydrofuro[2,3-b]furan-3-yl N-[(2S,3R)-4-[2H-1,3-benzodioxole-5-(2-methylpropyl)sulfonamido]-3-hydroxy-1-[4-(pyridin-2-ylmethoxy)phenyl]butan-2-yl]carbamate]
[1]
  Ki: 2.6 pM
[2]
  Ki: 1.7 pM

## CC(C)CN(C[C@@H](O)[C@H](Cc1ccc(OCCc2cccs2)cc1)NC(=O)O[C@H]1CO[C@H]2OCC[C@H]21)S(=O)(=O)c1ccc2c(c1)OCO2 [(3R,3aS,6aR)-hexahydrofuro[2,3-b]furan-3-yl N-[(2S,3R)-4-[2H-1,3-benzodioxole-5-(2-methylpropyl)sulfonamido]-3-hydroxy-1-{4-[2-(thiophen-2-yl)ethoxy]phenyl}butan-2-yl]carbamate]
[1]
  Ki: 3.9 pM
[2]
  Ki: 2.4 pM

## CNC(=O)OCCCC(C)(C)CN(C[C@@H](O)[C@H](Cc1ccccc1)NC(=O)O[C@H]1CO[C@H]2OCC[C@H]21)S(=O)(=O)c1ccc2c(c1)OCO2 [(3R,3aS,6aR)-hexahydrofuro[2,3-b]furan-3-yl N-[(2S,3R)-4-[2H-1,3-benzodioxole-5-({2,2-dimethyl-5-[(methylcarbamoyl)oxy]pentyl})sulfonamido]-3-hydroxy-1-phenylbutan-2-yl]carbamate]
[1]
  Ki: 27 pM
[2]
  Ki: 54.4 pM
[3]
  Ki: 25 pM

## CCOC(=O)NCCCCC(C)(C)CN(C[C@@H](O)[C@H](Cc1ccccc1)NC(=O)O[C@H]1CO[C@H]2OCC[C@H]21)S(=O)(=O)c1ccc2c(c1)OCO2 [(3R,3aS,6aR)-hexahydrofuro[2,3-b]furan-3-yl N-[(2S,3R)-4-[2H-1,3-benzodioxole-5-({6-[(ethoxycarbonyl)amino]-2,2-dimethylhexyl})sulfonamido]-3-hydroxy-1-phenylbutan-2-yl]carbamate]
[1]
  Ki: 4.6 pM
[2]
  Ki: 1.2 pM
[3]
  Ki: 4.3 pM

## CC(C)CN(C[C@@H](O)[C@H](Cc1ccccc1)NC(=O)O[C@H]1CCOC1)S(=O)(=O)c1ccc(N)cc1 [VX-478]
[4]
  Ki: 57 pM

## Cc1nc(COc2ccc(C[C@H](NC(=O)O[C@H]3CO[C@H]4OCC[C@H]43)[C@H](O)CN(CC(C)C)S(=O)(=O)c3ccc4c(c3)OCO4)cc2)cs1 [[3H]GW0385]
[5]
  Ki: 3.4 pM
[6]
  Ki: 2 pM
